Data set [1] in a line: Microsomal stability, rat. Type of data set: in vitro ADME. Particulars: rat microsomes. The protocol:
(§1) Microsomal stability for Compound AA and Compound BB was investigated. The following table indicates the percent of Compound AA and Compound BB remaining after 60 minutes.

Data set [2] in a line: Plasma protein binding assay, human. Type of data set: in vitro ADME. Particulars: read-out: Plasma Protein binding (% Bound) Plasma human (converted). The protocol:
Bound drug concentration in the brain was also investigated, and plasma protein binding assays were conducted. The following table (% bound) indicates results for Compound AA and Compound BB.

Data set [3] has as its system rat Schaffer collateral-evoked NMDA fEPSPs recorded in CA1 pyramidal neurons. The data set can be described thus: Long-term potentiation in hippocampal slices. It is filed as cell-based. Particulars: bath application 100 nm, 500 nm, 2 μM. The protocol:
Assays were conducted as described in Zhang et al. (Zhang, X. L., Sullivan, J. A., Moskal., J. R., Stanton, P. K., 2008. A NMDA receptor glycine site partial agonist, GLYX-13, simultaneously enhances LTP and reduces LTD at Schaffer collateral-CA1 synapses in hippocampus. Neuropharmacology, 55, 1238-50). See also Burgdorf, J, Zhang X L, Nicholson K L, Balster R L, Leander J D, Stanton P K, Gross A L, Kroes R A, Moskal J R (2013), GLYX-13, a NMDA receptor glycine-site functional partial agonist, induces antidepressant-like effects without ketamine-like side effects, Neuropsychopharmacology: official publication of the American College of Neuropsychopharmacology 38:729-742. […] A bipolar tungsten ystimulating electrode (FHC Co.) was placed on Schaffer collateral-commissural fibers in CA3 stratum radiatum, and constant current stimulus intensity adjusted to evoke approximately half-maximal fEPSPs once each 30 s ([…]; 100 μs duration). fEPSP slope was measured before and after induction of LTP by linear interpolation from 20 to 80% of maximum negative deflection, and slopes confirmed to be stable to within ±10% for at least 15 min before commencing an experiment. […] The signals were recorded using a Multiclamp 700B amplifier and digitized with a Digidata 1322 (Axon Instruments, USA).

Data set [4] has as its system Sprague Dawley rats. Briefly: Bennett model of mechanical analgesia (paw withdrawal threshold). It is filed as in vivo, rat. The note with it: 0.1-10 mg/kg PO; tested 1 h, 24 hrs and 1 week post-dosing. The protocol:
Bennett G J, Xie Y K, “A peripheral mononeuropathy in rat that produces disorders of pain sensation like those seen in man,” Pain 33:87-107, 1988. […] Vehicle animals receive the surgery and then receive vehicle rather than test compound. Animals were tested 1 hr, 24 h and 1 wk post-test compound or vehicle administration.
Male 2-3 month old Sprague Dawley rats were used. Harlan was the supplier for all studies. Rats were housed in Lucite cages with aspen wood chip bedding, maintained on a 12:12 light:dark cycle (lights on at 5 AM), and given ad libitum access to Purina lab chow (USA) and tap water throughout the study.
Rats were anesthetized using inhaled isoflurane (2.5%). Spared nerve injury surgery was performed as previously described (Bennett and Xie, 1988). An incision (˜1.5 cm in length) was made with a scalpel blade dorsally through skin on the right hindlimb, parallel and posterior to femur. Using a small pointed hemostat, the biceps femoris and gluteus superficialis muscles were separated. Using curved blunt forceps, the common sciatic nerve was isolated and exposed. For the mechanical analgesia studies, the whole sciatic nerve was ligated. Using hemostats/forceps and chromic gut (5-0), the nerve was loosely ligated with a square knot; 3 ligatures, 1 mm apart were placed on the nerve. […]

The nature of data set [5]: Microsomal stability, human. Type of data set: in vitro ADME. The note with it: human microsomes. The protocol: as §1
In data set [6] the target is NR2A (Homo sapiens, UniProt Q12879). Briefly: Potentiation of [3H]MK-801 binding, wild-type NMDAR2A. On the set-up: species or system rat.
NR2A, sequence (Q12879 23-1464, species assumed, other chains not shown): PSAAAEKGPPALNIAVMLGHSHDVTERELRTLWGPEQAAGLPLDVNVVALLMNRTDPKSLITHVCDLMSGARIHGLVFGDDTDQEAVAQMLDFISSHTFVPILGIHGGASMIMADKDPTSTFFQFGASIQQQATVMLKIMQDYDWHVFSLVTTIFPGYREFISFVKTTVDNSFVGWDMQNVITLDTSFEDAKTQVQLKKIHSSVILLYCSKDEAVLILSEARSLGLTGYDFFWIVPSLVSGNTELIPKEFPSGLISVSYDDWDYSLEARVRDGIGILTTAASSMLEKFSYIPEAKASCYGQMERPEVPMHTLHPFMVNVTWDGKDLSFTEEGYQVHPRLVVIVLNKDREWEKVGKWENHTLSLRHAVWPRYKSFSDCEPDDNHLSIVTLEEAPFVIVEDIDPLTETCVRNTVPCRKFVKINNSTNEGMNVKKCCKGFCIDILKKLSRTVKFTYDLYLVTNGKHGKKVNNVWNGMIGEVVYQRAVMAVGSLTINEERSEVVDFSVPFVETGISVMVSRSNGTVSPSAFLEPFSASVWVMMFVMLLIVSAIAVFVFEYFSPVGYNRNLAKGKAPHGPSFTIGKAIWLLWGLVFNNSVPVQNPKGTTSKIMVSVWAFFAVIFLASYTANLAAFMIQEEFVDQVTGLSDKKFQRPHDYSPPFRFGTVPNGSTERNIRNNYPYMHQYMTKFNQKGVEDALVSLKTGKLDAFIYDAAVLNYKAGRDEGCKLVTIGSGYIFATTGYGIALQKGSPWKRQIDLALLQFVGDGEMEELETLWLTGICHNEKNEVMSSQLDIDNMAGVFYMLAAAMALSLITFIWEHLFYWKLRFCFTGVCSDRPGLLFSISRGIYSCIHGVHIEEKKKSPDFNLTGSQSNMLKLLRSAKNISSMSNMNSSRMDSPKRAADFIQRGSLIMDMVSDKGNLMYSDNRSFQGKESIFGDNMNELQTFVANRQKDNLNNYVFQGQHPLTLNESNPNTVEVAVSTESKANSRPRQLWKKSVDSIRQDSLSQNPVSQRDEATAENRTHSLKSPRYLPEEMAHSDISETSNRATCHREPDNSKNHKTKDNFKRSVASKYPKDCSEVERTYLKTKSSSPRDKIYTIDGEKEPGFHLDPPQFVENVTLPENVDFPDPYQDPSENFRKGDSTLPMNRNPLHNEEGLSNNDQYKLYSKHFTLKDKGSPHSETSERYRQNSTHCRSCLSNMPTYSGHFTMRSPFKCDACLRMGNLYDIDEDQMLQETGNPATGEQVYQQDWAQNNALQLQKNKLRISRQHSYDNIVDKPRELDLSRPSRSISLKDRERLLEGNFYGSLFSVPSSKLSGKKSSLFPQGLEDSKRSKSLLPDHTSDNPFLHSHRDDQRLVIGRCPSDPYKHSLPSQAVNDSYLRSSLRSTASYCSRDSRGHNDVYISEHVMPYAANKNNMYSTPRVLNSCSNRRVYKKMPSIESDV

On to `C[C@@H](O)[C@@H](C(N)=O)N1C[C@@]2(CCCN2S(C)(=O)=O)C1=O` [Compound BB, (2S,3R)-3-hydroxy-2-((S)-5-(methylsulfonyl)-1-oxo-2,5-diazaspiro[3,4]octan-2-yl)butanamide], for which the “Microsomal Stability (% remaining at 60 min) Rat” value in data set [1] came out at 96%. The fraction unbound in data set [2] is 0.789. The “long-term potentiation after high frequency stimulation” value in data set [3] is reported as “increased long-term potentiation”. The “analgesic effects (paw withdrawal threshold)” value in data set [4] is “analgesic effects”. The “Microsomal Stability (% remaining at 60 min) Human” value in data set [5] is 92%. Moreover, the “NR2A A (%) (activity)” value in data set [6] (potentiation of [3H]MK-801 binding) is reported as 0%. Also, the “NMDAR2A BINDING PROFILE % 1 mM Glycine” value in data set [6] (relative to 1 mM glycine) was 0%. Moreover, the “binding to NR2A (in words)” value in data set [6] (statement in description) is recorded as “substantially no binding”. In data set [6] (wild-type NMDAR2A), the “NMDAR2A BINDING PROFILE Conclusion” value was “WT2A no”.

Source of the values: patent publication US10195179B2, “Spiro-lactam NMDA receptor modulators and uses thereof” (Aptinyx Inc., priority 2016, dated 2019).
